# Experimental data as given in patent US9775902B2, “Compounds and methods for treatment of stroke” (FIBROGEN, INC, priority 2006, dated 2017).
# Where two headings read alike, the source gives them in different places.
# How the values were obtained:
# [1] = test system: erythropoietin (EPO); assay: EPO expression in Hep3B cells (QUANTIKINE immunoassay of conditioned media); assay type: cell-based, Human; conditions: for Fold Increase Over Control: EPO, vs 1% DMSO control; for EPO: conditioned media after overnight incubation with compound
# Description: The effect of compounds of the present invention on expression of cytoprotective and neuroprotective factors in cells was evaluated as follows. Human cells derived from hepatocarcinoma (Hep3B) tissue (see, e.g., American Type Culture Collection, Manassas Va.) were seeded into 35 mm culture dishes and grown at 37° C., 20% O2, 5% CO2 in Minimal Essential Medium (MEM), Earle's balanced salt solution (Mediatech Inc., Herndon Va.), 2 mM L-glutamine, 0.1 mM non-essential amino acids, 1 mM sodium pyruvate, and 10% FBS. When cell layers reached confluence, the media was replaced with OPTI-MEM media (Invitrogen Life Technologies, Carlsbad Calif.) and cell layers were incubated for approximately 24 hours in 20% O2, 5% CO2 at 37° C. Various compounds of the present invention or 1% DMSO (negative control) were then added to existing media and incubation was continued overnight.
# Following incubation, the conditioned media was collected from cell cultures and analyzed for erythropoietin (EPO) expression using a QUANTIKINE immunoassay (R&D Systems, Inc., Minneapolis Minn.) according to the manufacturer's instructions.
# [2] = test system: VEGF; assay: Plasma VEGF in mice after intravenous injection; assay type: in vivo, Swiss Webster mice; conditions: mouse plasma, 20 mg/kg i.v., four hours after injection; for fold induction at 20 mg/kg: iv, 4 h, read-out: VEGF Fold Increase
# Description: (§1) The effect of compounds of the present invention on expression of cytoprotective and neuroprotective factors in vivo was evaluated as follows. In one series of experiments, male Swiss Webster mice (29-34 g) were administered various compounds of the present invention via intravenous injection into the caudal tail vein. Animals treated by intravenous injection received a 6 ml/kg volume of either 5% Dextrose with an equimolar amount of NaOH or Meglumine (vehicle control) or 20 mg/kg of a compound of the present invention in 5% dextrose with an equimolar amount of NaOH or Meglumine. Four hours after injection, the animals were anesthetized and exsanguinated. Plasma samples were collected in EDTA and heparin coated microtainer tubes. Plasma samples were assayed for erythropoietin and VEGF using commercially-available ELISA kits purchased from R & D Systems (Minneapolis Minn.).
# [3] = test system: erythropoietin (EPO); assay: EPO expression in Kelly neuroblastoma cells; assay type: cell-based; conditions: for EPO: conditioned media after overnight incubation
# Description: (§2) The effect of compounds of the present invention on expression of cytoprotective and neuroprotective factors in neuroblastoma cells was evaluated as follows. Kelly neuroblastoma cells (see, e.g., DSMZ, cat# ACC-355, Braunschweig Germany) were treated with various compounds of the present invention or 1% DMSO (negative control). Following an overnight incubation, the conditioned media was collected from cell cultures and analyzed for erythropoietin (EPO) and vascular endothelial growth factor (VEGF) expression using a QUANTIKINE immunoassay (R&D Systems, Inc., Minneapolis Minn.) according to the manufacturer's instructions.
# [4] = test system: erythropoietin; assay: Plasma EPO in mice after intravenous injection; assay type: in vivo, Swiss Webster mice; conditions: mouse plasma, 20 mg/kg i.v., four hours after injection; for fold induction at 20 mg/kg: iv, 4 h, read-out: EPO Fold Increase
# Description: as §1
# [5] = test system: vascular endothelial growth factor (VEGF); assay: VEGF expression in Kelly neuroblastoma cells; assay type: cell-based; conditions: for VEGF: conditioned media after overnight incubation
# Description: as §2
# [6] = test system: C57BL/6 mice, permanent occlusion of the MCA; assay: Permanent middle cerebral artery occlusion (pMCAO) in C57BL/6 mice: infarct volume and edema; assay type: in vivo; conditions: Mus musculus, iv, 24 h, C57BL/6 mice pMCAO, 20-60 mg/kg i.v., 24 hours after MCA occlusion, read-out: Percent Reduction in Infarct Volume
# Description: The effect of compounds of the present invention on infarct volume and edema associated with stroke was examined in an animal model of ischemic stroke. In these studies, mice were subjected to permanent occlusion of the middle cerebral artery. Mice were anesthetized intraperitoneally with avertin (0.5 mg/g). Mice were then immobilized in a rodent stereotaxic frame (Kopf Instruments, Tujunga Calif.) and maintained with avertin as needed. The surgical area of the head was swabbed with 70% ethanol and a lateral incision was made between the right orbit and the right ear. […] The distal course of the middle cerebral artery (MCA) was visible through the translucent skull. A small burr-hole craniotomy was performed with a micro-drill (Fine Science Tools, Foster City Calif.). The meninges/dura was removed and the MCA was coagulated by bipolar diathermy. The muscle and soft tissue were replaced and the incision closed with vet-bond adhesive (3M, St. Paul Minn.). These studies were performed in two different mouse models of pMCAO as described below.
# In one series of experiments, male C57BL/6 mice (25-35 g) were subjected to permanent occlusion of the MCA as described above. Compounds of the present invention were administered by intravenous injection at various times before or after MCA occlusion (see Table 7). Animals administered compound by intravenous injection received a 6 ml/kg volume of either 5% Dextrose with an equimolar amount of Meglumine (vehicle control) or 20-60 mg/kg of a compound of the present invention in 5% dextrose with an equimolar amount of Meglumine. Body temperature of the animals was maintained by use of a heating pad both during and after surgery. Twenty-four hours after MCA occlusion animals were euthanized with CO2 and their brains removed. After removal, the brain was sliced in 7 coronal sections, each 1 mm thick. The sections were placed rostral side down in a petri dish and stained with 1% Triphenyl tetrazolium chloride for 20 minutes at 37° C. for determination of infarct volume. Brain sections were then digitally photographed and analyzed for changes in infarct volume and extent of edema. Infarct volumes were determined by measuring the infarcted (i.e., non-stained) areas of each brain section and multiplying this value by the section thickness. Extent of edema was determined by the net increase in volume of the ipsilateral cortex compared to that of the contralateral cortex of brain sections.
# The effect of compounds of the present invention administered at various times following the onset of stroke was examined further as follows. In these studies, changes in infarct volume were measured using an animal model of stroke when compounds of the present invention were administered from 0 to 8 hours following permanent MCA occlusion. In one series of experiments, male C57BL/6 mice (25-35 g) were subjected to permanent occlusion of the MCA as described above. Compound F was administered to the animals by a single intravenous bolus injection at various times up to 5 hours after MCA occlusion (see Table 8 below). Animals administered compound by intravenous injection received a 6 ml/kg volume of either 5% Dextrose with an equimolar amount of NaOH (vehicle control) or 60 mg/kg of Compound F in 5% dextrose with an equimolar amount of NaOH. Body temperature of the animals was maintained by use of a heating pad both during and after surgery. Changes in infarct volumes were determined as described above.
# In another set of experiments, male C57BL/6 mice (25-35 g) were subjected to permanent occlusion of the MCA as described above. Compound F was administered by single intravenous bolus injection at various times up to 8 hours after MCA occlusion (see Table 9 below). Animals administered compound by intravenous injection received a 6 ml/kg volume of either 5% Dextrose with an equimolar amount of Meglumine (vehicle control) or 60 mg/kg of Compound F in 5% dextrose with an equimolar amount of Meglumine. […]
# [7] = test system: erythropoietin; assay: Plasma EPO in mice after oral gavage; assay type: in vivo, Swiss Webster mice; conditions: mouse plasma, oral gavage 6-60 mg/kg, six hours; for EPO: human EPO ELISA kit (*)
# Description: (§3) In another series of experiments, male Swiss Webster mice (29-34 g) were administered various compounds of the present invention via oral gavage using a ball-tipped gavage needle. Animals treated by oral gavage received a 4-10 ml/kg volume of either 0.5% carboxymethyl cellulose with or without 0.1% Polysorbate 80 (vehicle control) or various doses (6-60 mg/kg) of a compound of the present invention in 0.5% CMC, with or without 0.1% Polysorbate 80. Blood samples were collected and tissues were processed as described above. Six hours after injection, the animals were anesthetized and exsanguinated.
# (§4) Plasma samples were collected in EDTA and heparin coated microtainer tubes. Plasma samples were assayed for erythropoietin and VEGF using commercially-available ELISA kits purchased from R & D Systems (Minneapolis Minn.).
# [8] = test system: VEGF; assay: Plasma VEGF in mice after oral gavage; assay type: in vivo, Swiss Webster mice; conditions: mouse plasma, oral gavage 6-60 mg/kg, six hours
# Description: as §3, §4
# [9] = compound given 4 hr after occlusion
Structure (SMILES),Fold Increase Over Control [1],EPO [1] [mIU/ml],fold induction at 20 mg/kg [2],VEGF [2] [pg/mL],EPO Fold Increase [3],EPO [3] [mIU/ml],fold induction at 20 mg/kg [4],EPO ([4]; mouse EPO ELISA kit (**)) [pg/mL],VEGF Fold Increase [5],VEGF [5] [pg/mL],"inhibition in vivo at up to 20 mg/kg [6, 9] [%]",EPO Fold Increase [7],EPO [7] [mIU/ml],VEGF [8] [pg/mL],VEGF Fold Increase [8],EPO ([4]; human EPO ELISA kit (*)) [mIU/ml],inhibition in vivo at up to 20 mg/kg ([6]; compound given 0 hr) [%]
"N#Cc1nc(C(=O)NCC(=O)O)c(O)c2c(Oc3ccccc3)cccc12 [Compound AM, [(1-Cyano-4-hydroxy-5-phenoxy-isoquinoline-3-carbonyl)-amino]-acetic acid]",8.2,44.3,0.38,24,6.25,118.07,235,28206,4.0,5825,71,–,–,–,–,–,–
"N#Cc1nc(C(=O)NCC(=O)O)c(O)c2cc(Oc3ccc4c(c3)OCO4)ccc12 [Compound AN, {[6-(Benzo[1,3]dioxol-5-yloxy)-1-cyano-4-hydroxy-isoquinoline-3-carbonyl]-amino}-acetic acid]",16.2,42.8,1.05,39,13.28,251,26.2,14964,5.3,7252,46,–,–,–,–,–,–
"N#Cc1nc(C(=O)NCC(=O)O)c(O)c2cc(Oc3ccc4c(c3)CCO4)ccc12 [Compound AO, {[1-Cyano-6-(2,3-dihydro-benzofuran-5-yloxy)-4-hydroxy-isoquinoline-3-carbonyl]-amino}-acetic acid]",83.4,83.4,0.97,38,19.55,369.5,92.8,12719,4.6,6653,55,–,–,–,–,–,–
"CC(NC(=O)c1ncc2cc(Oc3ccccc3)ccc2c1O)C(=O)O (centres unmarked) [Compound I, 2-[(4-Hydroxy-7-phenoxy-isoquinoline-3-carbonyl)-amino]-propionic acid]",–,41.0,2.13,77.8,3.4,14.8,155,–,7.2,2370.0,–,16.46,21.4,62.7,2.71,62.1,–
"Cc1nc2ccc(Oc3ccc4c(O)c(C(=O)NCC(=O)O)ncc4c3)cc2o1 [Compound N, {[4-Hydroxy-7-(2-methyl-benzooxazol-6-yloxy)-isoquinoline-3-carbonyl]-amino}-acetic acid]",13.5,89.9,2.28,66,14.52,380.5,70.2,63.2,4.6,6316,–,–,–,–,–,–,46
"Cc1nc(C(=O)NCC(=O)O)c(O)c2cc(-c3ccc(F)cc3)sc12 [Compound P, {[2-(4-Fluoro-phenyl)-4-hydroxy-7-methyl-thieno[2,3-c]pyridine-5-carbonyl]-amino}-acetic acid]",7.2,54.9,1.15,45,13.90,262.8,5.88,62.3,5.1,7453,–,–,–,–,–,–,37
"N#Cc1nc(C(=O)NCC(=O)O)c(O)c2ccc(Oc3ccc(F)cc3)cc12 [Compound R, {[1-Cyano-7-(4-fluoro-phenoxy)-4-hydroxy-isoquinoline-3-carbonyl]-amino}-acetic acid]",25.3,49.1,1.38,54,19.71,372.6,52.4,555.5,7.4,2735,–,–,–,–,–,–,32
"CC(NC(=O)c1ncc2cc(Sc3ccccc3)ccc2c1O)C(=O)O (centres unmarked) [Compound Y, 2-[(4-Hydroxy-7-phenylsulfanyl-isoquinoline-3-carbonyl)-amino]-propionic acid]",–,–,–,–,–,–,–,–,–,–,–,8.85,11.5,52.7,2.28,–,–
